Assay results taken from publication PMC7180638, “Synthesis of Pyrrolidine Monocyclic Analogues of Pochonicine and Its Stereoisomers: Pursuit of Simplified Structures and Potent β-N-Acetylhexosaminidase Inhibition” (Molecules, 2020).
Where a name gives a salt, the structure may show the parent alone. Read-outs that look alike come from different tables or passages of the source.

Legend:
Format in all cases: biochemical
α-Glucosidase (Yeast) = α-Glucosidase (Yeast) (Saccharomyces cerevisiae, UniProt P53341); test: α-Glucosidase (yeast) inhibition
Description: (§1) With rat intestinal maltase as an exception, other enzymes were purchased from Sigma-Aldrich Chemical Co. (St. Louis, MO, USA). Brush border membranes prepared from rat small intestine according to the method of Kessler et al. were assayed at pH 6.8 for rat intestinal maltase using maltose. The released D-glucose was determined colorimetrically using the Glucose CII-test Wako (Wako Pure Chemical Ind.; Osaka, Japan). Other glycosidase activities were determined using an appropriate p-nitrophenyl glycoside as substrate in a buffer solution at the optimal pH value of each enzyme. The reaction was stopped by adding 400 mM Na2CO3. The released p-nitrophenol was measured spectrometrically at 400 nm.

[1] = target: β-N-Acetylhexosaminidase (Jack bean); test: β-N-Acetylhexosaminidase (Jack bean) inhibition; conditions: for IC50: β-N-Acetylhexosaminidase (β-GlcNAcase)
Description: as §1

[2] = target: T1, α-Mannosidase (Jack bean) (Canavalia ensiformis, UniProt C0HJB3); test: α-Mannosidase (Jack bean) inhibition
T1 construct: purchased Sigma-Aldrich Chemical Co
T1 sequence (C0HJB3 1-981): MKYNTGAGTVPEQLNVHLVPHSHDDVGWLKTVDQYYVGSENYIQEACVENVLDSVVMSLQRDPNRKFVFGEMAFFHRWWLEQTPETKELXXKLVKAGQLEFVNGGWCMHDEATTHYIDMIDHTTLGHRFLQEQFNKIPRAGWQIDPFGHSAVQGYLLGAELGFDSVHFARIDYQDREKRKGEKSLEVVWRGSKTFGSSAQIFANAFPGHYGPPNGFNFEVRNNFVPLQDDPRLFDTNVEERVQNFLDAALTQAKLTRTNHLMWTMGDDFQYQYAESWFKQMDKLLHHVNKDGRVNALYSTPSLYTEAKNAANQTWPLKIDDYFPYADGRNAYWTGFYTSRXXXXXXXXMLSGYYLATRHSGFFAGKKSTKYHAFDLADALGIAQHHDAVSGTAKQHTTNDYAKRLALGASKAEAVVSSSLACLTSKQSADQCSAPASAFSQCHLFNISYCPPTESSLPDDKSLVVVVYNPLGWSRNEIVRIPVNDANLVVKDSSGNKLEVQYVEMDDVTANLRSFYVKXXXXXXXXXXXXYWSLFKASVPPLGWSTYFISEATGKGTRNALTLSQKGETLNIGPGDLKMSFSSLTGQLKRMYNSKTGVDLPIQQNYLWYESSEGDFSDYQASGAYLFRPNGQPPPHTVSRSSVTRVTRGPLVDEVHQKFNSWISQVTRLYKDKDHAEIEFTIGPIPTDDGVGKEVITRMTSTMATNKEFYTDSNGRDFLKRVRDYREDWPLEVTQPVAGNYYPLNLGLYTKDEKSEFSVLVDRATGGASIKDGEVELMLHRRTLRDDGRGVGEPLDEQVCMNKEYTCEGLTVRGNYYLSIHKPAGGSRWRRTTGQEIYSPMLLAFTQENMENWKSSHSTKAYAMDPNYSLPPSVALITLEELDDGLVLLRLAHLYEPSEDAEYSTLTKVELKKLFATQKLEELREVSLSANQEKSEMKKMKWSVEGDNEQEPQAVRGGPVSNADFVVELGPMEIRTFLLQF
Description: as §1

[3] = target: β-N-Acetylgalactosaminidase (HL60); test: β-N-Acetylgalactosaminidase (HL60) inhibition
Description: as §1

[4] = target: β-N-Acetylhexosaminidase (HL60); test: β-N-Acetylhexosaminidase (HL60) inhibition; conditions: for IC50: β-N-Acetylhexosaminidase (β-GlcNAcase); for Inhibition % at 1000 μM: β-N-Acetylhexosaminidase
Description: as §1

[5] = target: T2, β-Glucuronidase (E. coli) (Escherichia coli, UniProt P05804); test: β-Glucuronidase (E. coli) inhibition
T2 construct: purchased Sigma-Aldrich Chemical Co
Description: as §1

[6] = target: T3, β-Galactosidase (Bovine liver) (Bos taurus, UniProt F1MNT6); test: β-Galactosidase (bovine liver) inhibition
T3 sequence (F1MNT6 1-469): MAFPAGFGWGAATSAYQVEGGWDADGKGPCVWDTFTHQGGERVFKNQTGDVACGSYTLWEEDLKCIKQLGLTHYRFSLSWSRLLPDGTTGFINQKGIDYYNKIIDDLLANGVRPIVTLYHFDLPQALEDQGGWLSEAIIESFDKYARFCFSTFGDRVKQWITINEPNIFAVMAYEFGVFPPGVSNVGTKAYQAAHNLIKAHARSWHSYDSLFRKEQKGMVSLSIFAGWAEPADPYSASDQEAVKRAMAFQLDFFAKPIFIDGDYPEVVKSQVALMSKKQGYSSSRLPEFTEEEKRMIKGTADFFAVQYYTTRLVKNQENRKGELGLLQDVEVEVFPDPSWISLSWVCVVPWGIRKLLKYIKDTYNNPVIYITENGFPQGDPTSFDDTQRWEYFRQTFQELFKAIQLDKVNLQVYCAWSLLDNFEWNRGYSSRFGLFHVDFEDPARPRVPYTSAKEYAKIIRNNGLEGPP
Description: as §1

[7] = target: T4, α,α-Trehalase (Porcine kidney) (Sus scrofa, UniProt I3LIR5); test: α,α-Trehalase (porcine kidney) inhibition
T4 construct: purchased Sigma-Aldrich Chemical Co; host or cells: porcine kidney
T4 sequence (I3LIR5 24-583): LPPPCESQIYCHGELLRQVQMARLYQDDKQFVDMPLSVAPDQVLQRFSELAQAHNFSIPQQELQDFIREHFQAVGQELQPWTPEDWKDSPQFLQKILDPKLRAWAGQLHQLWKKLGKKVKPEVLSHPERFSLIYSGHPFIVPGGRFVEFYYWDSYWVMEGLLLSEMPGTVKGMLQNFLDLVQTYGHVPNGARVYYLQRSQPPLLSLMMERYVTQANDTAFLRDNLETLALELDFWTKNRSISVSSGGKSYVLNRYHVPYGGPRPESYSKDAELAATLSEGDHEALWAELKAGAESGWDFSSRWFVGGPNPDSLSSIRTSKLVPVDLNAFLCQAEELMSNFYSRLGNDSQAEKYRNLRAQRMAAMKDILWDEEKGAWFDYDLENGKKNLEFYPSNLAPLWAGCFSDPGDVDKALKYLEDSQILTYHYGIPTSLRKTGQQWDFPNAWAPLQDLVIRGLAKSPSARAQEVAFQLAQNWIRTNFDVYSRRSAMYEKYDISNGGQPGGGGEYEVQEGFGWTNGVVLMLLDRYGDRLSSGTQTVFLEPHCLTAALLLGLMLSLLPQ
Description: as §1

[8] = target: T5, Amyloglucosidase (A. niger) (Aspergillus niger, UniProt P69328); test: Amyloglucosidase (A. niger) inhibition
T5 construct: purchased Sigma-Aldrich Chemical Co
Description: as §1

α-Glucosidase (Rice) = target: T6, α-Glucosidase (Rice) (Oryza sativa subsp. japonica, UniProt Q653V7); test: α-Glucosidase (rice) inhibition
T6 construct: purchased Sigma-Aldrich Chemical Co
Description: as §1

[9] = target: β-N-Acetylhexosaminidase (Bovine liver); test: β-N-Acetylhexosaminidase (bovine liver) inhibition; conditions: for IC50: β-N-Acetylhexosaminidase (β-GlcNAcase); for Inhibition % at 1000 μM: β-N-Acetylhexosaminidase
Description: as §1

[10] = read-out: Inhibition % at 1000 μM
[11] = α-Glucosidase, Yeast, read-out: IC50
[12] = 1000 μM, read-out: Inhibition % at 1000 μM

T2 sequence (P05804 whole entry): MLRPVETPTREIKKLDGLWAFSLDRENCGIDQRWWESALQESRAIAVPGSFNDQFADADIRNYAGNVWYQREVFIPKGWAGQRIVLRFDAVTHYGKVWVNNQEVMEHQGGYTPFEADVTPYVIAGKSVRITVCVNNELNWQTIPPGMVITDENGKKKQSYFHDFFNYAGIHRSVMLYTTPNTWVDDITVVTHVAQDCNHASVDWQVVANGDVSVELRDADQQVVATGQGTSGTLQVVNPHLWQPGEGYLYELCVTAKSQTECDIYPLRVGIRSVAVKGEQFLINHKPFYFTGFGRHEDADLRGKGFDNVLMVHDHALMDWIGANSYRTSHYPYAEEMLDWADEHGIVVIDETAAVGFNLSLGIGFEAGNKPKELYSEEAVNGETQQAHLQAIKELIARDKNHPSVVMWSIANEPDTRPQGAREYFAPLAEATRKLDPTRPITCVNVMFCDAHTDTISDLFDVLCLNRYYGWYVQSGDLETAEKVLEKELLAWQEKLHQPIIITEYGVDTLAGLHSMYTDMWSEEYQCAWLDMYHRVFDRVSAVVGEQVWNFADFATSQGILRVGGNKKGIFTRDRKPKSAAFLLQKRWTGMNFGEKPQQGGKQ
α-Glucosidase (Yeast), sequence (P53341 whole entry): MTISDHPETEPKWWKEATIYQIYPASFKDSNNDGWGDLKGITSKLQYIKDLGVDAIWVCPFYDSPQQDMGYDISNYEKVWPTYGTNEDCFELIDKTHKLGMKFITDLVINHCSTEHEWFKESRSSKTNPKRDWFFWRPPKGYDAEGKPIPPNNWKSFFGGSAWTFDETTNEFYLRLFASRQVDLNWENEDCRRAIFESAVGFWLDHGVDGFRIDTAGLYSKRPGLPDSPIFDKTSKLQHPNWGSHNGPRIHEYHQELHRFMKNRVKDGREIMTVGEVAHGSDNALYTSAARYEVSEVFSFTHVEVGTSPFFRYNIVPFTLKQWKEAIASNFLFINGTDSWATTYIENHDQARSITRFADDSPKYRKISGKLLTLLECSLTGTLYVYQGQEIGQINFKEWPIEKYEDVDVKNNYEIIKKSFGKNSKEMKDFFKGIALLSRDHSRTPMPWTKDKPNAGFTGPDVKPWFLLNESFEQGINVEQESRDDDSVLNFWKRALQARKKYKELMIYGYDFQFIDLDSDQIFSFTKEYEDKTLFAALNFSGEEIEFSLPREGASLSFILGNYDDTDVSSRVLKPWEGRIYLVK
T5 sequence (P69328 25-640): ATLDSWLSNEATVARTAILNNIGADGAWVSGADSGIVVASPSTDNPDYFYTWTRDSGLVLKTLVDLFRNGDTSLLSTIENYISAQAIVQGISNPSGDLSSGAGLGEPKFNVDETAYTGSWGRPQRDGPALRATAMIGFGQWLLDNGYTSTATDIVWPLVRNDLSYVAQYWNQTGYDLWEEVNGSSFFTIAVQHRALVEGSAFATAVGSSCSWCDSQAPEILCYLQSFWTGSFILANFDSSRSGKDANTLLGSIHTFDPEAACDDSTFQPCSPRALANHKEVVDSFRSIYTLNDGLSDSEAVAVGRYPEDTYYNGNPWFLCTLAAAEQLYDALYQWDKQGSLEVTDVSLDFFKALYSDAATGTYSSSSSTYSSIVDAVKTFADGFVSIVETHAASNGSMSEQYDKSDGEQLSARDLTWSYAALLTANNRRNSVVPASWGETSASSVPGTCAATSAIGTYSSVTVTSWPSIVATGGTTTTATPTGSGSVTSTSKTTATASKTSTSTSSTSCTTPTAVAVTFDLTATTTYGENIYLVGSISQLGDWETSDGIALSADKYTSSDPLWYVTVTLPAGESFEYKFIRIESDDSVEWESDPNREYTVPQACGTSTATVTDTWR
T6 sequence (Q653V7 34-885): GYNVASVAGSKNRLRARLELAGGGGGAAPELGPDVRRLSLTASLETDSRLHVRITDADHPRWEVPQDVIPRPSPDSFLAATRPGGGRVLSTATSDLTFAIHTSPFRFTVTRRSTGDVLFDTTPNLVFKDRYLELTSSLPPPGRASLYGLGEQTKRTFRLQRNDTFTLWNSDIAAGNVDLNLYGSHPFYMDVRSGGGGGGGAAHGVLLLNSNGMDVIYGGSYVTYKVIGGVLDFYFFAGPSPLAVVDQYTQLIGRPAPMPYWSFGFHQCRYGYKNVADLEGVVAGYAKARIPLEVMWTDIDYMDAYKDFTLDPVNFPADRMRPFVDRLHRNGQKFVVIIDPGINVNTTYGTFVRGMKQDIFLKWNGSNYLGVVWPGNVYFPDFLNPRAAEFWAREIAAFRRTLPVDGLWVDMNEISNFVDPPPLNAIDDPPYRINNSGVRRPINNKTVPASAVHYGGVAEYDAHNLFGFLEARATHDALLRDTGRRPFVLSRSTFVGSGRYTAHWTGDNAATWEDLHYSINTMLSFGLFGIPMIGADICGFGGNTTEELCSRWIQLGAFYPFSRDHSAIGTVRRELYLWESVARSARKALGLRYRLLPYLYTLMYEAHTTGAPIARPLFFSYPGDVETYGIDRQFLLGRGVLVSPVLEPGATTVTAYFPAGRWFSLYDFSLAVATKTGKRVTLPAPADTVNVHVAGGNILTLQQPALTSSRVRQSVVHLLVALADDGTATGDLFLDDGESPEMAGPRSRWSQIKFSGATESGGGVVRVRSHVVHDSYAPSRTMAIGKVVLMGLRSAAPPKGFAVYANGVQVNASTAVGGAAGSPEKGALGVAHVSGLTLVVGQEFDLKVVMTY

SMILES | inhibition at 1000 µM (α-Glucosidase (Yeast); [10]) | inhibition at 1000 µM (α-Glucosidase (Yeast); [11]) | IC50 ([1]; read-out: IC50) | IC50 ([3]; read-out: IC50) | IC50 ([4]; read-out: IC50) | inhibition at 1000 µM [5, 12] | inhibition at 1000 µM ([5]; read-out: IC50) | inhibition at 1000 µM [6, 12] | inhibition at 1000 µM ([6]; read-out: IC50) | inhibition at 1000 µM [7, 12] | inhibition at 1000 µM ([7]; read-out: IC50) | inhibition at 1000 µM [8, 12] | inhibition at 1000 µM ([8]; read-out: IC50) | inhibition at 1000 µM (α-Glucosidase (Rice); [12]) | inhibition at 1000 µM (α-Glucosidase (Rice); read-out: IC50) | inhibition at 1000 µM [2, 12] | inhibition at 1000 µM ([2]; read-out: IC50) | IC50 [3] | Inhibition % at 1000 μM [3] | IC50 [4] | other results
CC(=O)NC[C@H]1N[C@H](CO)[C@H](O)[C@@H]1O [D-10, 1-N-acetylamino-2,5-imino-1,2,5-trideoxy-D-altritol hydrochloride] | 0% | < 50% | 0.12 µM | 8.8 µM | 10 µM | 0% | < 50% | 3.3% | < 50% | 0% | < 50% | 3.8% | < 50% | 26.1% | < 50% |  |  |  |  |  | IC50 [2]: 205 µM
CC(=O)NC[C@H]1N[C@@H](CO)[C@@H](O)[C@@H]1O [E-10a, 1-N-acetylamino-2,5-imino-1,2,5-trideoxy-D-glucitol hydrochloride] | 0% | < 50% | 10 µM | 490 µM | 591 µM | 0% | < 50% | 4.9% | < 50% | 5.6% | < 50% | 4% | < 50% | 15.9% | < 50% | 0.7% | < 50% |  |  |  | IC50 ([9]; read-out: IC50): 95 µM
CC(=O)NC[C@@H]1N[C@@H](CO)[C@@H](O)[C@@H]1O [E-10b, 1-N-acetylamino-2,5-imino-1,2,5-trideoxy-L-iditol hydrochloride] | 0% | < 50% | 115 µM |  |  | 0% | < 50% | 3.9% | < 50% | 0% | < 50% | 6.4% | < 50% | 0% | < 50% | 3.8% | < 50% | NI (No Inhibition (less than 50% at 1000 μM)) | 10.1% | NI (No Inhibition (less than 50% at 1000 μM)) | Inhibition % at 1000 μM [4]: 4.5%; IC50 [9]: NI (No Inhibition (less than 50% at 1000 μM)); Inhibition % at 1000 μM [9]: 38.4%
CC(=O)NC[C@@H]1N[C@H](CO)[C@H](O)[C@H]1O [F-10a, 1-N-acetylamino-2,5-imino-1,2,5-trideoxy-L-glucitol hydrochloride] | 6.91% |  |  |  |  | 0% | < 50% | 4.2% | < 50% | 3% | < 50% | 2.8% | < 50% | 12.5% | < 50% | 0% | < 50% | NI (No Inhibition (less than 50% at 1000 μM)) | 0.9% | NI (No Inhibition (less than 50% at 1000 μM)) | inhibition at 1000 µM (α-Glucosidase (Yeast); read-out: IC50): < 50%; IC50 [1]: NI (No Inhibition (less than 50% at 1000 μM)); Inhibition % at 1000 μM ([1]; β-N-Acetylhexosaminidase, 1000 μM): 42%; Inhibition % at 1000 μM [4]: 0%; IC50 [9]: NI (No Inhibition (less than 50% at 1000 μM)); Inhibition % at 1000 μM [9]: 23.2%
